Measurements: patent publication US8129371B2, “Thienopyrimidine and pyrazolopyrimidine compounds and their use as mTOR kinase and PI3 kinase inhibitors” (Wyeth LLC, priority 2007, dated 2012)
Where two headings read alike, the source gives them in different places.

Tests used:
Human mTOR (FLAG-TOR) = biological target: T1, Human mTOR (FLAG-TOR) (Homo sapiens, UniProt P42345); test: Human mTOR kinase assay with purified enzyme, DELFIA format; format: biochemical
T1 construct: FLAG
In short: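 Purified FLAG-mTOR in HEPES pH 7.4 buffer with 10 mM MnCl2 was preincubated with inhibitor and reacted 2 h at room temperature with His6-S6K substrate, then stopped with EDTA/EGTA. Phospho-T389 S6K detected by DELFIA with Eu-labelled antibody (40 ng/mL) after plate capture; inhibition computed from signal.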

PI3K [1] = biological target: T2, PI3K (Homo sapiens, UniProt P42336); test: Fluorescence polarization assay for PI3K; format: biochemical; conditions: read-out: PI3 Kinase α IC50
T2 construct: PI3 Kinase α IC50; other: PI3 Kinase α; other: PI3 Kinase α isoform, fluorescence polarization
T2 sequence (P42336 whole entry, canonical isoform): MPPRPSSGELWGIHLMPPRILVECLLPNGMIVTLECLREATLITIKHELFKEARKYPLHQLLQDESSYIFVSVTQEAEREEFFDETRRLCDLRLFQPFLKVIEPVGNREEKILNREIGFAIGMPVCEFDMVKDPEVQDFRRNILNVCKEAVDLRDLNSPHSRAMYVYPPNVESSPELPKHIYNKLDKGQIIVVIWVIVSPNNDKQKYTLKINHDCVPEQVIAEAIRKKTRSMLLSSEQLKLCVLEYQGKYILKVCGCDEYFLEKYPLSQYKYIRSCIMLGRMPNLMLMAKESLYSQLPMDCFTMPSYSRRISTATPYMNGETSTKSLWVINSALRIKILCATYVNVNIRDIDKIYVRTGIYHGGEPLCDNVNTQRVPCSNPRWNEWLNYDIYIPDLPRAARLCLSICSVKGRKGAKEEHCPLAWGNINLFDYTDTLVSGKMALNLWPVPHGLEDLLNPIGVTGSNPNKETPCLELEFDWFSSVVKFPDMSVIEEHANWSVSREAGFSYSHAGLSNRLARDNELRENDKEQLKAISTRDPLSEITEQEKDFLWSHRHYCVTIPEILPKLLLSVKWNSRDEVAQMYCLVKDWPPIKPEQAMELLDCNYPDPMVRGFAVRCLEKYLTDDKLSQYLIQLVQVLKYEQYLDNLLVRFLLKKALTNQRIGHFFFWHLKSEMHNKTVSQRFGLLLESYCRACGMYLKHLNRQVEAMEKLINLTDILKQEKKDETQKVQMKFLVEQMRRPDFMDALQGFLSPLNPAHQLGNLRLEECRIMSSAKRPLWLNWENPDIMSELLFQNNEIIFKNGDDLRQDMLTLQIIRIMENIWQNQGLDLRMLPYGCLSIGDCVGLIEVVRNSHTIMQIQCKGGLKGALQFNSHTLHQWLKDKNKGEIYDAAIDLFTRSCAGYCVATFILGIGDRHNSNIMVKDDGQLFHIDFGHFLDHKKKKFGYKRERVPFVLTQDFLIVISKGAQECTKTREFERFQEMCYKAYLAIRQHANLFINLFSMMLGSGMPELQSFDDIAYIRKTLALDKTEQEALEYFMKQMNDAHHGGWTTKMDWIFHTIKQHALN
In short: (§1)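 PI3K was preincubated with compound (final DMSO 1%), and the reaction was started with PIP2/ATP substrate and run 30–60 min. It was stopped with a detector mix giving 10 nM red probe and 70 nM GST-GRP.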

PI3K [2] = biological target: T3, PI3K (Homo sapiens, UniProt P48736); test: Fluorescence polarization assay for PI3K; format: biochemical; conditions: read-out: PI3 Kinase γ IC50
T3 construct: PI3 Kinase γ IC50; other: PI3 Kinase γ; other: PI3 Kinase γ isoform, fluorescence polarization
T3 sequence (P48736 whole entry, canonical isoform): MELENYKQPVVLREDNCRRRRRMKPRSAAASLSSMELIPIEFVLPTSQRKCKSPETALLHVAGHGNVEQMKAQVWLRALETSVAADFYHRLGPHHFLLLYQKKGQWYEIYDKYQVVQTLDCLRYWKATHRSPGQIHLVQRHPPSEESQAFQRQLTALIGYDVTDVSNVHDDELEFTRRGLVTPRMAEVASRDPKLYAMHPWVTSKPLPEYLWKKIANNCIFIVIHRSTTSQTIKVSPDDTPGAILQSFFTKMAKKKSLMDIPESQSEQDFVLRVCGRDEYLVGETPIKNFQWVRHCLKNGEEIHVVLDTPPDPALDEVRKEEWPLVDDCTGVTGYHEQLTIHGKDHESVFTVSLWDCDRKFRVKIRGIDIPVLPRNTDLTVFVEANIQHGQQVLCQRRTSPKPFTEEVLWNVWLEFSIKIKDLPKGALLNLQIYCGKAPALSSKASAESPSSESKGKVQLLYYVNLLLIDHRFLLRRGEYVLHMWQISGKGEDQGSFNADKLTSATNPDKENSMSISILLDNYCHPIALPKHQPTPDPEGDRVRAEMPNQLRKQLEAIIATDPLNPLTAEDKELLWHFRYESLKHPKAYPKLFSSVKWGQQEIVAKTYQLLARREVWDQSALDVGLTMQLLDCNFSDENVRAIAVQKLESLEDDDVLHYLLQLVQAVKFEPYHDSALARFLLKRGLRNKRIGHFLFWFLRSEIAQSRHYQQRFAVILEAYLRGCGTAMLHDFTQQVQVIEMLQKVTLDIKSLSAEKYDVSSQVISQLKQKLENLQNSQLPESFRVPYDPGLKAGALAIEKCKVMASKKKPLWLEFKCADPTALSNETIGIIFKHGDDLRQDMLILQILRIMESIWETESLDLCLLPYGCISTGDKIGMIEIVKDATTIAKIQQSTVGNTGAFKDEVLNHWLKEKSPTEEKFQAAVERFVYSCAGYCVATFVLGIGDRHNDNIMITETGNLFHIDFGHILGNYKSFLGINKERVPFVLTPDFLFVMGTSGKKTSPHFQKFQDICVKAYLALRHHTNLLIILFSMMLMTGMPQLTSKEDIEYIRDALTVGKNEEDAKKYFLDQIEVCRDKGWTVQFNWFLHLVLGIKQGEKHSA
In short: as §1

prostate line LNCap = test: In vitro cell culture growth assay (MTS), LNCap; format: cell-based; conditions: Homo sapiens, LNCaP, 72 h, LNCap cells, three days after drug treatment
In short: (§2)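 Following a one-day attachment period, cells received inhibitors for 3 days. MTS metabolism by viable cells was quantified at 490 nm absorbance and converted to percent of same-plate vehicle control growth.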

breast line MDA468 = test: In vitro cell culture growth assay (MTS), MDA468; format: cell-based; conditions: Homo sapiens, 72 h, MDA468 cells, three days after drug treatment
In short: as §2

[3] = purified human mTOR enzyme, DELFIA format
[4] = PI3 Kinase α isoform, fluorescence polarization
[5] = PI3 Kinase γ isoform, fluorescence polarization

| SMILES | IC50 (Human mTOR (FLAG-TOR); [3]) [nM] | IC50 (PI3K [1]; [4]) [nM] | IC50 (PI3K [2]; [5]) [nM] | IC50 (prostate line LNCap) [nM] | IC50 (breast line MDA468) [nM] | IC50 (Human mTOR (FLAG-TOR)) [nM] | IC50 (PI3K [1]; PI3 Kinase α) [nM] | IC50 (PI3K [2]; PI3 Kinase γ) [nM] |
| --- | --- | --- | --- | --- | --- | --- | --- | --- |
| CNC(=O)Nc1ccc(-c2nc(N3CC4CCC(C3)O4)c3cnn(C(COC)COC)c3n2)cc1 [Example 319, 1-(4-{1-[2-methoxy-1-(methoxymethyl)ethyl]-4-(8-oxa-3-azabicyclo[3.2.1]oct-3-yl)-1H-pyrazolo[3,4-d]pyrimidin-6-yl}phenyl)-3-methylurea] | 13.5 | 628 | > 10000 | 240 | 900 |  |  |  |
| CCn1ncc2c(N3CC4CCC(C3)O4)nc(-c3ccc(NC(=O)Nc4ccc(N5CCN(C)CC5)nc4)cc3)nc21 [Example 185, 1-{4-[1-ethyl-4-(8-oxa-3-azabicyclo[3.2.1]oct-3-yl)-1H-pyrazolo[3,4-d]pyrimidin-6-yl]phenyl}-3-[6-(4-methylpiperazin-1-yl)pyridin-3-yl]urea] |  |  |  | < 1 | 1 | 0.735 | 196 | 2270 |
| O=C(Nc1ccc(CCO)cc1)Nc1ccc(-c2nc(N3C[C@@H]4C[C@H]3CO4)c3cnn(CC(F)(F)F)c3n2)cc1 [Example 297, 1-[4-(2-hydroxyethyl)phenyl]-3-(4-{4-[(1S,4S)-2-oxa-5-azabicyclo[2.2.1]hept-5-yl]-1-(2,2,2-trifluoroethyl)-1H-pyrazolo[3,4-d]pyrimidin-6-yl}phenyl)urea] | 0.55 | 275 | 3580 | < 1 | 4 |  |  |  |
| O=C(Nc1ccc(-c2nc(N3CC4CCC(C3)O4)c3cnn([C@H]4CC[C@H](O)CC4)c3n2)cc1)NC1CC1 (relative stereo) [Example 403, 1-cyclopropyl-3-{4-[1-(trans-4-hydroxycyclohexyl)-4-(8-oxa-3-azabicyclo[3.2.1]oct-3-yl)-1H-pyrazolo[3,4-d]pyrimidin-6-yl]phenyl}urea] | 0.4 | 3630 | > 10000 | 5 | 180 |  |  |  |
| CCn1ncc2c(N3CC4CCC(C3)O4)nc(-c3ccc(NC(=O)Nc4ccc(NC)nc4)cc3)nc21 [Example 286, 1-{4-[1-ethyl-4-(8-oxa-3-azabicyclo[3.2.1]oct-3-yl)-1H-pyrazolo[3,4-d]pyrimidin-6-yl]phenyl}-3-[6-(methylamino)pyridin-3-yl]urea] |  |  |  | 17 | 200 | 0.9 | 270 | 14900 |
| COC(=O)N1CCC(n2ncc3c(N4CC5CCC(C4)O5)nc(-c4ccc(NC(=O)Nc5cccnc5)cc4)nc32)CC1 [Example 13, methyl 4-[4-(8-oxa-3-azabicyclo[3.2.1]oct-3-yl)-6-{4-[(pyridin-3-ylcarbamoyl)amino]phenyl}-1H-pyrazolo[3,4-d]pyrimidin-1-yl]piperidine-1-carboxylate] |  |  |  | 15 | 75 | 0.1 | 613 | 6840 |
| O=C1CCC(n2ncc3c(N4CC5CCC(C4)O5)nc(-c4ccc(NC(=O)OCCO)cc4)nc32)CC1 [Example 211, 2-hydroxyethyl {4-[4-(8-oxa-3-azabicyclo[3.2.1]oct-3-yl)-1-(4-oxocyclohexyl)-1H-pyrazolo[3,4-d]pyrimidin-6-yl]phenyl}carbamate] |  |  |  | 17 | 120 | 0.885 | 2120 | > 10000 |
| Cn1ncc2c(N3CC4CCC(C3)O4)nc(-c3ccc(NC(=O)Nc4ccc(S(=O)(=O)CCN5CCCCC5)cc4)cc3)nc21 [Example 240, 1-{4-[1-methyl-4-(8-oxa-3-azabicyclo[3.2.1]oct-3-yl)-1H-pyrazolo[3,4-d]pyrimidin-6-yl]phenyl}-3-{4-[(2-piperidin-1-ylethyl)sulfonyl]phenyl}urea] |  |  |  | 1 | 8 | 0.305 | 116 | 916 |
| CN1CCN(c2ccc(NC(=O)Nc3ccc(-c4nc(N5CC6CCC(C5)O6)c5cnn(C6CCC7(CCCO7)CC6)c5n4)cc3)cc2)CC1 (single isomer, unassigned) [Example 313, 1-[4-(4-methylpiperazin-1-yl)phenyl]-3-(4-{4-(8-oxa-3-azabicyclo[3.2.1]oct-3-yl)-1-[(5r,8r)-1-oxaspiro[4.5]dec-8-yl]-1H-pyrazolo[3,4-d]pyrimidin-6-yl}phenyl)urea] | 0.365 | 581 | 1450 | 1 | 15 |  |  |  |
| Cn1ncc2c(N3CC4COC(C3)O4)nc(-c3ccc(NC(=O)Nc4cccnc4)cc3)nc21 (centres unmarked) [Example 391, 1-{4-[4-(6,8-dioxa-3-azabicyclo[3.2.1]oct-3-yl)-1-methyl-1H-pyrazolo[3,4-d]pyrimidin-6-yl]phenyl}-3-pyridin-3-ylurea] | 4.2 | 101 | 919 | 185 | 580 |  |  |  |
| O=C(Nc1ccc(CCO)cc1)Nc1ccc(-c2nc(N3C4CCC3COC4)c3cnn(CC(F)(F)F)c3n2)cc1 [Example 272, 1-[4-(2-hydroxyethyl)phenyl]-3-{4-[4-(3-oxa-8-azabicyclo[3.2.1]oct-8-yl)-1-(2,2,2-trifluoroethyl)-1H-pyrazolo[3,4-d]pyrimidin-6-yl]phenyl}urea] |  |  |  | < 1 | 1 | 0.106 | 132 | 1150 |
| CCn1nc(-c2cccnc2)c2c(N3CC4CCC(C3)O4)nc(-c3ccc(NC(=O)NC)cc3)nc21 [Example 349, 1-{4-[1-ethyl-4-(8-oxa-3-azabicyclo[3.2.1]oct-3-yl)-3-pyridin-3-yl-1H-pyrazolo[3,4-d]pyrimidin-6-yl]phenyl}-3-methylurea] | 8.9 | 596 | 4960 | 210 | 800 |  |  |  |
| CO[C@H]1CC[C@H](n2ncc3c(N4CC5CCC(C4)O5)nc(-c4ccc(NC(=O)NC5CC5)cc4)nc32)CC1 (relative stereo) [Example 399, 1-cyclopropyl-3-{4-[1-(trans-4-methoxycyclohexyl)-4-(8-oxa-3-azabicyclo[3.2.1]oct-3-yl)-1H-pyrazolo[3,4-d]pyrimidin-6-yl]phenyl}urea] | 0.52 | 1500 | 6600 | 1 | 41 |  |  |  |
| COC(=O)N1CCC(n2ncc3c(N4C5CCC4COC5)nc(-c4ccc(NC(=O)Nc5ccc(CN6CCN(C)CC6)cc5)cc4)nc32)CC1 [Example 367, methyl 4-[6-{4-[({4-[(4-methylpiperazin-1-yl)methyl]phenyl}carbamoyl)amino]phenyl}-4-(3-oxa-8-azabicyclo[3.2.1]oct-8-yl)-1H-pyrazolo[3,4-d]pyrimidin-1-yl]piperidine-1-carboxylate] | 0.88 | 2390 | 1820 | 1 | 13 |  |  |  |
| CC(C)C(=O)N1CCC(n2ncc3c(N4CC5CCC(C4)O5)nc(-c4ccc(NC(=O)NCCO)cc4)nc32)CC1 [Example 84, 1-(2-hydroxyethyl)-3-{4-[1-(1-isobutyrylpiperidin-4-yl)-4-(8-oxa-3-azabicyclo[3.2.1]oct-3-yl)-1H-pyrazolo[3,4-d]pyrimidin-6-yl]phenyl}urea] |  |  |  | 1010 | 1200 | 0.56 | 1980 | > 10000 |
| CNC(=O)Nc1ccc(-c2nc(N3CC4CCC(C3)O4)c3cnn(C4CCC(N5CCCC5)CC4)c3n2)cc1 (centres unmarked) [Example 331, 1-methyl-3-{4-[4-(8-oxa-3-azabicyclo[3.2.1]oct-3-yl)-1-(4-pyrrolidin-1-ylcyclohexyl)-1H-pyrazolo[3,4-d]pyrimidin-6-yl]phenyl}urea] | 8.05 | 606 | 5320 | 380 | 1200 |  |  |  |
| CCn1ncc2c(N3CC4CCC(C3)O4)nc(-c3ccc4[nH]ccc4c3)nc21 [Example 76, 1-ethyl-6-(1H-indol-5-yl)-4-(8-oxa-3-azabicyclo[3.2.1]oct-3-yl)-1H-pyrazolo[3,4-d]pyrimidine] |  |  |  | 1700 | 7000 | 29 | 6690 | > 10000 |
| CC(C)(C)OC(=O)N1CCC(n2ncc3c(N4CC5CCC(C4)O5)nc(-c4ccc(NC(=O)Nc5cccnc5)cc4)nc32)CC1 [Example 24, tert-butyl 4-[4-(8-oxa-3-azabicyclo[3.2.1]oct-3-yl)-6-{4-[(pyridin-3-ylcarbamoyl)amino]phenyl}-1H-pyrazolo[3,4-d]pyrimidin-1-yl]piperidine-1-carboxylate] |  |  |  | 7 | 18 | 0.39 | 629 | 6300 |
| CCn1ncc2c(N3CC4CCC(C3)O4)nc(-c3ccc(NC(=O)Nc4ccc(OCCN5CCOCC5)nc4)cc3)nc21 [Example 283, 1-{4-[1-ethyl-4-(8-oxa-3-azabicyclo[3.2.1]oct-3-yl)-1H-pyrazolo[3,4-d]pyrimidin-6-yl]phenyl}-3-[6-(2-morpholin-4-ylethoxy)pyridin-3-yl]urea] |  |  |  | < 1 | 8 | 0.975 | 373 | 4750 |
